US20060063759A1, “Tricyclic steroid hormone nuclear receptor modulators” (priority 2002, published 2006)
pKi: −log10 of the molar value.

Legend:
glucocorticoid receptor = target: T1, glucocorticoid receptor (Homo sapiens, UniProt P04150); test: Glucocorticoid Receptor Binding Assay ([3H]-dexamethasone, A549 cell extract); settings: [3H]-dexamethasone binding, read-out: GR Ki
T1 construct: containing 50-200 ug of A549 cell extract and 1.86 nM [^3H]-dexamethasone; host or cells: A549 human lung epithelial cells (sonicated cell extract)
T1 sequence (P04150 1-777): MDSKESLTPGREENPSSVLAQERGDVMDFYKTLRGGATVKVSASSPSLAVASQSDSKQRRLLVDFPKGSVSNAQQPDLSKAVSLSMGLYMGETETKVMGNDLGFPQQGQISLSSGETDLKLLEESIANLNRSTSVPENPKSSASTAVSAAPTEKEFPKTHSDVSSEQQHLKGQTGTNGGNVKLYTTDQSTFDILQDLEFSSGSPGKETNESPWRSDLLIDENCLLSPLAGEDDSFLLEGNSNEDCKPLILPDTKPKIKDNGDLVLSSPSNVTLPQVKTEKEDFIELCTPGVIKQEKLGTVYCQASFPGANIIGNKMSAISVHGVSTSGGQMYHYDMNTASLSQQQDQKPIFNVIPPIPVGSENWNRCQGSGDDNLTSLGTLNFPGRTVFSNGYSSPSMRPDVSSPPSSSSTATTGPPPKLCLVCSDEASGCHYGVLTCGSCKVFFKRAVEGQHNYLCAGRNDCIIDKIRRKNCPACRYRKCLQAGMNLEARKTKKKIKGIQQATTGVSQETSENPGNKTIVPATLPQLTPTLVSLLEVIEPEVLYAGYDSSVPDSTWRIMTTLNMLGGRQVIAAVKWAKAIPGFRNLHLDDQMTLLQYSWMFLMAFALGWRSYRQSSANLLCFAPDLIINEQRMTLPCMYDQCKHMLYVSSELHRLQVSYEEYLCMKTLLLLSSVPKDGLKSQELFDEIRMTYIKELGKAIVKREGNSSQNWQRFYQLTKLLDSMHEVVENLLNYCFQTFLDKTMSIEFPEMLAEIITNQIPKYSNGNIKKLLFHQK
Method in brief: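 Displacement of [3H]-dexamethasone (1.86 nM) from glucocorticoid receptor in sonicated A549 lung epithelial cell extracts, 16 h at 4 °C, pH 7.2 molybdate-containing buffer. Bound radioactivity was scintillation-counted after charcoal/dextran stripping of free ligand.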

human MR = target: T2, human MR (Homo sapiens, UniProt P08235); test: Mineralocorticoid Receptor Binding Assay ([3H]-aldosterone); settings: [3H]-aldosterone binding, human MR expressed in Sf9 cells; read-out: MR Ki
T2 construct: The full length human MR gene is cloned from a human kidney or human brain cDNA library; His tag from the pAcHLT vector (own knowledge); made in house; host or cells: Sf9 insect cells (baculovirus, pAcHLT transfer vector)
T2 sequence (P08235 1-984): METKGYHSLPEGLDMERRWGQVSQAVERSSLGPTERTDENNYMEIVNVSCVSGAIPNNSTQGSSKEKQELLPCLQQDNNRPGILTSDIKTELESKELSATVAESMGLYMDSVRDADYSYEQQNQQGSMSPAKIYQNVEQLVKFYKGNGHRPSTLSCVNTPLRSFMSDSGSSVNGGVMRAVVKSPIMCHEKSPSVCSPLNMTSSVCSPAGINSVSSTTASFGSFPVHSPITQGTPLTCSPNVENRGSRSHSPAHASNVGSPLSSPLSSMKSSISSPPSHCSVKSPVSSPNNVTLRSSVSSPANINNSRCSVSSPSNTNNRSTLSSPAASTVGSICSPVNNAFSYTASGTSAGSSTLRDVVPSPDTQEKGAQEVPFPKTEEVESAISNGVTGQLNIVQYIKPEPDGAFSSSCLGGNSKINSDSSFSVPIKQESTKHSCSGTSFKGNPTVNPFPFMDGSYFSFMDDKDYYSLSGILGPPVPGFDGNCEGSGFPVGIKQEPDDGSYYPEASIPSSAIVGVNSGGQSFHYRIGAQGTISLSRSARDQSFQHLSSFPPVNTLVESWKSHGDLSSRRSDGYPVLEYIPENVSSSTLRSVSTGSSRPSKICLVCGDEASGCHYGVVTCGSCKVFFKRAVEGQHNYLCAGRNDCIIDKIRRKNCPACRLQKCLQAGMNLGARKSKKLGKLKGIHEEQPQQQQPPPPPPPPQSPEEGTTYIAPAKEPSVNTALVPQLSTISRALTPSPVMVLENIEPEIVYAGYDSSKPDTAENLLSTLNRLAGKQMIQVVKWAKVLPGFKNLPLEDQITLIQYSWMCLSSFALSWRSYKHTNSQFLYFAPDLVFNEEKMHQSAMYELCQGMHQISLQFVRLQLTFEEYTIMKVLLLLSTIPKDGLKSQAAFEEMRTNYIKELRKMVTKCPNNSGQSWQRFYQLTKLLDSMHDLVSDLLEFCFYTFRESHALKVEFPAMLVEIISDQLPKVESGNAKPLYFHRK
Method in brief: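 Receptor source: freeze-thaw lysate of baculovirus-infected Sf9 cells carrying full-length human MR, 20-25 μg protein. Incubation ~16 h at 4 °C with shaking, pH 7.5 buffer containing 30 mM sodium molybdate and 10% glycerol.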

SMILES | pKi (glucocorticoid receptor) | pKi (human MR)
Cc1cccc(C=C2c3ccccc3CCc3ccccc32)c1 [Example 132, 5-(3-Methyl-benzylidene)-10,11-dihydro-5H-dibenzo[a,d]cycloheptene] | > 6.00 | > 6.30
Fc1ccc2c(c1)CCc1ncccc1/C2=C/c1cccc(C(F)(F)F)c1 [Example 590] | > 6.00 | > 6.30
COc1ccc2c(c1)CSc1ccccc1/C2=C(/C)c1cccc(NS(C)(=O)=O)c1 [Example 841] | > 6.30 | > 6.30
C/C(=C1/c2ccccc2COc2cc(OCC3CC3)ccc21)c1cccc(NS(C)(=O)=O)c1 [Example 814] | > 6.30 | > 6.30
COc1cccc(/C=C2\c3ccccc3CCc3c(O)cccc32)c1 [Example 368] | > 5.00 | > 6.30
CC/C(=C1\c2ccc(OC)cc2COc2cc(F)ccc21)c1cccc(NS(C)(=O)=O)c1 [Example 824] | > 6.30 | > 6.30
CCC(=C1c2ccc(C)cc2CCc2cc(F)ccc21)c1cccc(NS(C)(=O)=O)c1 [Example 833] | > 6.30 | > 6.30
CS(=O)(=O)Nc1cc(F)cc(/C=C2/c3ccc(F)cc3CCc3nc(CF)ccc32)c1 [Example 598] | > 6.30 | > 6.30
COc1cc2c(cc1OC)C(=Cc1cccc(NS(C)(=O)=O)c1)c1ccccc1CC2 [Example 170(b), N-[3-(2,3-Dimethoxy-10,11-dihydro-dibenzo[a,d]cyclohepten-5-ylidenemethyl)-phenyl]-methanesulfonamide] | > 6.30 | > 6.30
COc1ccc2c(c1)CCc1ccccc1C2=Cc1cccc(O)c1 (mixture of isomers) [Example 167, 3-(2-Methoxy-10,11-dihydro-dibenzo[a,d]cyclohepten-5-ylidenemethyl)-phenol] | > 6.30 | > 6.30
COc1cc2c(cc1OC)C(=Cc1cccc(NS(C)(=O)=O)c1)c1ccccc1CC2 [Example 170(a), N-[3-(2,3-Dimethoxy-10,11-dihydro-dibenzo[a,d]cyclohepten-5-ylidenemethyl)-phenyl]-methanesulfonamide] | > 6.00 | > 6.30
CS(=O)(=O)Nc1cccc(C=C2c3ccccc3CCc3cc(O)ccc32)c1 (mixture of isomers) [Example 162, N-[3-(2-Hydroxy-10,11-dihydro-dibenzo[a,d]cyclohepten-5-ylidenemethyl)-phenyl]-methanesulfonamide] | > 6.30 | > 6.30
CS(=O)(=O)Nc1cccc(/C=C2\c3ccccc3CCc3cc(N)ccc32)c1 [Example 407] | > 6.30 | > 6.30
CC/C(=C1/c2ccccc2COc2cc(F)ccc21)c1cccc(NS(C)(=O)=O)c1 [Example 812] | > 6.30 | > 6.30
Cc1cccc2c1C(=Cc1ccc(NS(C)(=O)=O)cc1)c1ccccc1CC2 [Example 310] | > 6.00 | > 6.30
O=c1[nH]c2ccc(/C=C3\c4ccccc4CCc4ncsc43)cc2[nH]1 [Example 561] | > 6.00 | > 6.30
CC/C(=C1/c2ccc(OC)cc2COc2cc(F)ccc21)c1cccc(NS(C)(=O)=O)c1 [Example 823] | > 6.30 | > 6.30
Cc1ccc2c(c1)C(=Cc1cccc(NS(C)(=O)=O)c1)c1ccccc1CC2 [Example 301] | > 6.30 | > 6.30
Fc1ccc2c(c1)CCc1ncccc1/C2=C/c1ccccc1 [Example 526] | > 5.00 | > 6.30
COc1ccc2c(c1)COc1cc(F)ccc1/C2=C\c1cccc(NS(C)(=O)=O)c1 [Example 735] | > 6.30 | > 6.30

SMILES | pKi (glucocorticoid receptor) | pKi (human MR)
O=c1[nH]c2ccc(/C=C3/c4ccc(F)cc4CCc4ncccc43)cc2[nH]1 [Example 518] | > 6.30 | > 6.30
Cc1ccc2c(c1)CCc1cc(F)ccc1/C2=C/c1cccc(NS(C)(=O)=O)c1 [Example 422] | > 6.30 | > 6.30
Cc1ccc2c(c1)SCc1ccccc1/C2=C/c1cccc(NS(C)(=O)=O)c1 [Example 748] | > 6.30 | > 6.30
COc1cccc2c1OCc1ccccc1/C2=C/c1cccc(NS(C)(=O)=O)c1 [Example 669] | > 6.30 | > 6.30
O=c1[nH]c2cc(/C=C3\c4ccc(F)cc4CCc4ncccc43)ccc2s1 [Example 536] | > 6.30 | > 6.30
CC(C)n1c(=O)[nH]c2cc(C=C3c4ccc(F)cc4CCc4cc(F)ccc43)ccc21 [Example 464] | > 5.00 | > 6.30
Cc1nc2cc(C=C3c4ccccc4CCc4ccccc43)ccc2o1 [Example 218, 5-(10,11-Dihydro-dibenzo[a,d]cyclohepten-5-ylidenemethyl)-2-methyl-benzooxazole] | > 6.00 | > 6.30
Oc1cccc(C=C2c3ccccc3CCc3c(Cl)cccc32)c1 [211(b), 3-(1-Chloro-10,11-dihydro-dibenzo[a,d]cyclohepten-5-ylidenemethyl)-phenol] | > 6.00 | > 6.30
Oc1cccc(/C=C2/c3ccccc3CCc3c2cccc3C(F)F)c1 [Example 380] | > 6.00 | > 6.30
Cc1ccc2c(c1)CCc1ccccc1/C2=C\c1cccc(NS(C)(=O)=O)c1 [Example 327] | > 6.30 | > 6.30
CS(=O)(=O)Nc1cccc(/C=C2\c3ccccc3CCc3scnc32)c1 [484(a), N-[3-(9,10-Dihydro-1-thia-3-aza-benzo[f]azulen-4-ylidenemethyl)-phenyl]-methanesulfonamide] | > 6.30 | > 6.00
O=c1[nH]c2ccc(/C=C3\c4ccccc4CCc4cc(C(F)F)ccc43)cc2[nH]1 [Example 453] | > 6.00 | > 6.30
Nc1nc2c(s1)C(=Cc1cccc(O)c1)c1ccccc1CC2 [Example 560] | > 6.00 | > 6.30
CNc1ccccc1C=C1c2ccccc2CCc2ccccc21 [Example 120, [2-(10,11-Dihydro-dibenzo[a,d]cyclohepten-5-ylidenemethyl)-phenyl]-methyl-amine] | > 5.00 | > 6.30
Cc1cccc2c1C(=Cc1cccc(NS(C)(=O)=O)c1)c1ccccc1CC2 [Example 304] | > 6.30 | > 6.30
CS(=O)(=O)NCc1cccc(C=C2c3ccccc3CCc3ccccc32)c1 [Example 145, N-[3-(10,11-Dihydro-dibenzo[a,d]cyclohepten-5-ylidenemethyl)-benzyl]-methanesulfonamide] | > 6.30 | > 6.30
COc1cccc(/C=C2/c3ccccc3CCc3c(O)cccc32)c1 [Example 369] | > 5.00 | > 6.30
COc1ccc2c(c1)OCc1ccccc1C2=Cc1ccc2[nH]c(=O)[nH]c2c1 [Example 639] | > 5.00 | > 6.30
COc1ccc2c(c1)OCc1ccccc1/C2=C/c1cccc(NS(C)(=O)=O)c1 [Example 706] | > 6.30 | > 6.30
